Data on one molecule can be found in ChEMBL document CHEMBL2074433, “Specificity of doxorubicin versus rhodamine-123 in assessing P-glycoprotein functionality in the LLC-PK1, LLC-PK1:MDR1 and Caco-2 cell lines” (Eur J Pharm Sci, 2000).

Structures are written as SMILES.

In this data set the target is ATP-dependent translocase ABCB1 (Homo sapiens, UniProt P08183). The data set is described as follows: TP_TRANSPORTER: inhibition of Doxorubicin transepithelial transport (basal to apical) (Doxorubicin: 3 uM, Quinidine: 50 uM) in MDR1-expressing LLC-PK1 cells. Type of data set: functional, cell-based. The following applies: pig, llc-pk1, 50 µM.
ATP-dependent translocase ABCB1, sequence (P08183 whole entry): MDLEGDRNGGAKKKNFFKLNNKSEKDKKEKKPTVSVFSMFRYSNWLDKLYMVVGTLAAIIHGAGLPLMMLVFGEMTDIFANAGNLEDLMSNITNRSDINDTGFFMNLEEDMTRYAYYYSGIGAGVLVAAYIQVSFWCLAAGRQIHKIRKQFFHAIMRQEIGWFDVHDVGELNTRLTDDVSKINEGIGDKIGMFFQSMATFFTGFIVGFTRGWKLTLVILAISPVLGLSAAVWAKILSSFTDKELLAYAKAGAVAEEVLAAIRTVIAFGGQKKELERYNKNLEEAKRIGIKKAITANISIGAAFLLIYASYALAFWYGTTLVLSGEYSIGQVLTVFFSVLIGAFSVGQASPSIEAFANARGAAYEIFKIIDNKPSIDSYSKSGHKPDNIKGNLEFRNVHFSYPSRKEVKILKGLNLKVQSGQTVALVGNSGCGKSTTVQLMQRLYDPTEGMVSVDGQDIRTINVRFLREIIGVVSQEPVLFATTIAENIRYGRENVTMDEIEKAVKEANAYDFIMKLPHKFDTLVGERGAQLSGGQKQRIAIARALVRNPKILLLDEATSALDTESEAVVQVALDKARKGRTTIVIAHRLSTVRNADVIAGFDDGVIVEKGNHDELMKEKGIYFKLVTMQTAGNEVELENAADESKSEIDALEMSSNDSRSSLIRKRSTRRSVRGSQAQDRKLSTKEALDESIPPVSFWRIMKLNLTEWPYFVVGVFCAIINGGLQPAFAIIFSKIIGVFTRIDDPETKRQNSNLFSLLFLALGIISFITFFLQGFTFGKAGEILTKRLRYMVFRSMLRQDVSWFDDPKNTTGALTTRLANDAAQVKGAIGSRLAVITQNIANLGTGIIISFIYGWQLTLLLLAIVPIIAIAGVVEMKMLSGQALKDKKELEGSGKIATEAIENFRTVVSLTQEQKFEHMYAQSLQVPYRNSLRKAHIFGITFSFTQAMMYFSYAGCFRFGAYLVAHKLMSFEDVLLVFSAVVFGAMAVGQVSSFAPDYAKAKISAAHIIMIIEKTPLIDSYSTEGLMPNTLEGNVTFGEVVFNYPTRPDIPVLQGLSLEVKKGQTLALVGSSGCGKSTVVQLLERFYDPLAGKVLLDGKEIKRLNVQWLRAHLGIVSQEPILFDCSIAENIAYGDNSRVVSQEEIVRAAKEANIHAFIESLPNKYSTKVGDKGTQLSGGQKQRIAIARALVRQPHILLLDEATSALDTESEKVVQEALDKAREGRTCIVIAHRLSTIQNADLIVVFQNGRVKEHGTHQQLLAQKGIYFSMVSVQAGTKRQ

In the case of `C=C[C@H]1C[N@@]2CC[C@H]1C[C@H]2[C@H](O)c1ccnc2ccc(OC)cc12` [QUININE], the Activity result was “is not an inhibitor [-]”.
